US8431563B2 (priority 2010, dated 2013)
Read-outs that look alike come from different tables or passages of the source.

How the values were obtained:
[1] = target: T1, interaction between glucokinase (GK) and glucokinase regulatory protein (GKRP) (Homo sapiens, UniProt Q14397); assay: biochemical; format: binding
T1 sequence (Q14397 1-625): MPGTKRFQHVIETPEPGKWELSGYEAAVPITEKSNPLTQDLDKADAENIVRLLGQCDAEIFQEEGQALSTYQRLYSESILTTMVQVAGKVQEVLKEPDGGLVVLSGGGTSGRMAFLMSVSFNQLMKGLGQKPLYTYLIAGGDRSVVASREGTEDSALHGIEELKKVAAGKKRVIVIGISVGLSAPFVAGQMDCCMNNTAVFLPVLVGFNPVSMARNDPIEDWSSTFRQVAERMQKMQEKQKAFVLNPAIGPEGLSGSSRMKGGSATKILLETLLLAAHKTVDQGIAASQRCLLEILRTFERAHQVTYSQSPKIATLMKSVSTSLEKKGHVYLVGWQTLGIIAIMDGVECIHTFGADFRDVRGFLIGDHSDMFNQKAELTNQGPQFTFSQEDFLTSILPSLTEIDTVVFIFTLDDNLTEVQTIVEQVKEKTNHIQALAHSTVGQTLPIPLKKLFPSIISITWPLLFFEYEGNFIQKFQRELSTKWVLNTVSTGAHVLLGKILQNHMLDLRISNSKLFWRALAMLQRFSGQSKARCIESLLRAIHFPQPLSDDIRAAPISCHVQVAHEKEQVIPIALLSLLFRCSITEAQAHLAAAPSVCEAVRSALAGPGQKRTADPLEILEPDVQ
Procedure: GK-GKRP Binding Assay Protocol
This assay is used to directly measure the interaction between glucokinase (GK) and glucokinase regulatory protein (GKRP). Begin by preparing the following solutions. Assay Buffer: 20 mM Tris, pH 7.5/0.05% BSA/1 mM DTT/1 μM sorbitol-6-phosphate. […] Combine the following reagents in a white 96-well half area plate. Pipette 14 μl of the diluted avi-tagged GKRP into each well. Add 1 μl of compound to be tested and incubate at room temperature for 20 minutes. After 20 minutes, add 5 μl of assay buffer containing 6 nM GK-fluorescein. […] Incubate in a dark room for 2 hours at room temperature. After 2 hours read the plate using an Envision plate reader (Perkin Elmer, Waltham Mass.).

[2] = target: T2, GKRP (Glucokinase Regulatory Protein) with human His-hepatic GK (Homo sapiens, UniProt Q14397); assay: biochemical
T2 sequence (Q14397 1-625): T1 sequence (Q14397 1-625)
Procedure: GKRP LC MS/MS-2 Biochemical Assay
This assay is used to directly measure the formation of ^13C-glucose-6-phosphate from ^13C-glucose by LC MS/MS. Begin by preparing the following solutions: Compound Buffer (CB): 50 mM Tris, pH 7.5/4 mM MgCl2/6% DMSO/fresh 10 mM DTT from 1M frozen stock. Enzyme Buffer (EB): 50 mM Tris, pH 7.5/4 mM MgCl2/6% DMSO/fresh 0.1% BSA/fresh 0.01% Brij-35 (10% BSA and 1% Brij-35 stock). GK (Glucokinase) Working Stock (5×): Dilute human His-hepatic GK to 30 nM in EB buffer. […] After 30 minutes add 10 μl of GK Working Stock (5×). Re-seal the plate and incubate for another 30 minutes at room temperature while mixing. After the second 30 minutes, stop the reaction by the addition of 50 μl of 100% acetonitrile, seal, and mix for 5-10 minutes. Run 10 μl of this sample through the LC MS/MS (API 3200, Applied Biosystems, Carlsbad, Calif.).

[3] = avi-tagged GKRP, GK-fluorescein, AlphaScreen beads, read-out: GK-GKRP IC50 (Binding)
[4] = 13C-glucose-6-phosphate formation, 280 nM GKRP (10×), 30 nM GK (5×), read-out: GK-GKRP EC50 (LC MS/MS-2)

| Compound | IC50 [1, 3] | EC50 [2, 4] | IC50 ([1]; GK-GKRP IC50 (Binding)) | EC50 ([2]; GK-GKRP EC50 (LC MS/MS-2)) |
| --- | --- | --- | --- | --- |
| C[C@H]1COCCN1C[C@H]1CN(S(=O)(=O)c2ccc(N)nc2)CCN1c1ccc(C(C)(O)C(F)(F)F)cc1 (mixture of isomers) [Example 125, 2-(4-((2S)-4-((6-amino-3-pyridinyl)sulfonyl)-2-(((3S)-3-methyl-4-morpholinyl)methyl)-1-piperazinyl)phenyl)-1,1,1-trifluoro-2-propanol] | 3 nM | 20 nM | – | – |
| CC(C)CS(=O)(=O)N(C[C@H]1CN(S(=O)(=O)c2cccs2)CCN1c1ccc(C(C)(O)C(F)(F)F)cc1)c1ccccc1 (mixture of isomers) [Example 211, 2-methyl-N-phenyl-N-(((2R)-4-(2-thiophenylsulfonyl)-1-(4-(2,2,2-trifluoro-1-hydroxy-1-methylethyl)phenyl)-2-piperazinyl)methyl)-1-propanesulfonamide] | 6 nM | 20 nM | – | – |
| C[C@H]1CN(S(=O)(=O)c2nccs2)CCN1c1ncc(C(O)(C(F)(F)F)C(F)(F)F)cn1 [Example 146, 1,1,1,3,3,3-hexafluoro-2-(2-((2S)-2-methyl-4-(1,3-thiazol-2-ylsulfonyl)-1-piperazinyl)-5-pyrimidinyl)-2-propanol] | 630 nM | 867 nM | – | – |
| CC(C)N(C[C@H]1CN(S(=O)(=O)c2cccs2)CCN1c1ccc(C(C)(O)C(F)(F)F)cc1)S(=O)(=O)c1ccccc1 (mixture of isomers) [Example 197, N-(1-methylethyl)-N-(((2R)-4-(2-thiophenylsulfonyl)-1-(4-(2,2,2-trifluoro-1-hydroxy-1-methylethyl)phenyl)-2-piperazinyl)methyl)benzenesulfonamide] | 215 nM | 80 nM | – | – |
| Cn1cnc(COC[C@H]2CN(S(=O)(=O)c3cccs3)CCN2c2ccc(C(C)(O)C(F)(F)F)cc2)c1 (single isomer, unassigned) [Example 119 Peak #2] | 979 nM | 206 nM | – | – |
| CC(O)(c1ccc(N2CCN(S(=O)(=O)c3cccs3)C[C@@H]2CS(=O)(=O)c2ccccc2)cc1)C(F)(F)F (single isomer, unassigned) [Example 187 Peak#1] | 41 nM | 49 nM | – | – |
| CC1(O)C[C@H]2COC[C@@H](C1)N2C[C@H]1CN(S(=O)(=O)c2cccs2)CCN1c1ccc(C(C)(O)C(F)(F)F)cc1 (stereo partly drawn) [Example 108, (1R,5S)-7-methyl-9-(((2S)-4-(2-thiophenylsulfonyl)-1-(4-(2,2,2-trifluoro-1-hydroxy-1-methylethyl)phenyl)-2-piperazinyl)methyl)-3-oxa-9-azabicyclo[3.3.1]nonan-7-ol (endo)] | 27 nM | 45 nM | – | – |
| CC(O)(c1ccc(N2CCN(S(=O)(=O)c3cccs3)C[C@@H]2CN(C2CC2)S(C)(=O)=O)cc1)C(F)(F)F (mixture of isomers) [Example 200, N-cyclopropyl-N-(((2R)-4-(2-thiophenylsulfonyl)-1-(4-(2,2,2-trifluoro-1-hydroxy-1-methylethyl)phenyl)-2-piperazinyl)methyl)methanesulfonamide] | 26 nM | 39 nM | – | – |
| CS(=O)(=O)N(C[C@H]1CN(S(=O)(=O)c2ccc(N)nc2)CCN1c1ncc(C(O)(C(F)(F)F)C(F)(F)F)cn1)c1ccccc1 [Example 234, N-(((2R)-4-((6-amino-3-pyridinyl)sulfonyl)-1-(5-(2,2,2-trifluoro-1-hydroxy-1-(trifluoromethyl)ethyl)-2-pyrimidinyl)-2-piperazinyl)methyl)-N-phenylmethanesulfonamide] | 4 nM | 17 nM | – | – |
| CC(O)(c1ccc(N2CCN(S(=O)(=O)c3cccs3)C[C@@H]2CN2[C@@H]3COC[C@H]2CC(O)C3)cc1)C(F)(F)F (stereo partly drawn) [Example 107, 9-(((2S)-4-(2-thiophenylsulfonyl)-1-(4-(2,2,2-trifluoro-1-hydroxy-1-methylethyl)phenyl)-2-piperazinyl)methyl)-3-oxa-9-azabicyclo[3.3.1]nonan-7-ol (endo)] | 5 nM | 16 nM | – | – |
| C[C@H]1CN(S(=O)(=O)c2ccc(N)s2)CCN1c1ncc(C(C)(O)C(F)(F)F)cn1 (mixture of isomers) [Example 137, 2-(2-((2S)-4-((5-amino-2-thiophenyl)sulfonyl)-2-methyl-1-piperazinyl)-5-pyrimidinyl)-1,1,1-trifluoro-2-propanol] | – | – | 281 nM | 658 nM |
| Nc1ccc(S(=O)(=O)N2CCN(c3ncc(C(O)(C(F)(F)F)C(F)(F)F)cn3)[C@@H](CN3C4COCC3CC(=O)C4)C2)cn1 [Example 99 nonan-7-one, 9-(((2S)-4-((6-amino-3-pyridinyl)sulfonyl)-1-(5-(2,2,2-trifluoro-1-hydroxy-1-(trifluoromethyl)ethyl)-2-pyrimidinyl)-2-piperazinyl)methyl)-3-oxa-9-azabicyclo[3.3.1]nonan-7-one] | 75 nM | 97 nM | – | – |
| C[C@H]1COCCN1C[C@H]1CN(S(=O)(=O)c2cccs2)CCN1c1ncc(C(O)(C(F)(F)F)C(F)(F)F)cn1 [Example 82, 1,1,1,3,3,3-hexafluoro-2-(2-((2S)-2-(((3S)-3-methyl-4-morpholinyl)methyl)-4-(2-thiophenylsulfonyl)-1-piperazinyl)-5-pyrimidinyl)-2-propanol] | 15 nM | 26 nM | – | – |
| CC(O)(c1ccc(N2CCN(S(=O)(=O)c3cccs3)C[C@@H]2CN2CCOC[C@@H]2CO)cc1)C(F)(F)F (single isomer, unassigned) [Example 111 Peak #1] | 64 nM | 99 nM | – | – |
| CC(C)CN(C[C@H]1CN(S(=O)(=O)c2cccs2)CCN1c1ccc(C(C)(O)C(F)(F)F)cc1)S(C)(=O)=O (mixture of isomers) [Example 201, N-(2-methylpropyl)-N-(((2S)-4-(2-thiophenylsulfonyl)-1-(4-(2,2,2-trifluoro-1-hydroxy-1-methylethyl)phenyl)-2-piperazinyl)methyl)methanesulfonamide] | 4 nM | 14 nM | – | – |
| CC(O)(c1ccc(N2CCN(S(=O)(=O)c3cccs3)C[C@@H]2CN(C2COC2)C2COC2)cc1)C(F)(F)F (mixture of isomers) [Example 205, 2-(4-((2S)-2-((di-3-oxetanylamino)methyl)-4-(2-thiophenylsulfonyl)-1-piperazinyl)phenyl)-1,1,1-trifluoro-2-propanol] | 435 nM | 480 nM | – | – |
| O=S(=O)(c1nccs1)N1CCN(c2ncc(C(O)(C(F)(F)F)C(F)(F)F)cn2)[C@@H](CN2C3COCC2C(O)C3)C1 (stereo partly drawn) [Example 81, 8-(((2S)-4-(1,3-thiazol-2-ylsulfonyl)-1-(5-(2,2,2-trifluoro-1-hydroxy-1-(trifluoromethyl)ethyl)-2-pyrimidinyl)-2-piperazinyl)methyl)-3-oxa-8-azabicyclo[3.2.1]octan-6-ol] | 177 nM | 287 nM | – | – |
| CC(O)(c1ccc(N2CCN(S(=O)(=O)c3cccs3)C[C@@H]2CN2CCS(=O)(=O)CC2)cc1)C(F)(F)F (mixture of isomers) [Example 85, 2-(4-((2S)-2-((1,1-dioxido-4-thiomorpholinyl)methyl)-4-(2-thiophenylsulfonyl)-1-piperazinyl)phenyl)-1,1,1-trifluoro-2-propanol] | 350 nM | 475 nM | – | – |
| CC(C)CN(C[C@H]1CN(S(=O)(=O)c2ccc(N)s2)CCN1c1ncc(C(O)(C(F)(F)F)C(F)(F)F)cn1)S(C)(=O)=O [Example 229, N-(((2S)-4-((5-amino-2-thiophenyl)sulfonyl)-1-(5-(2,2,2-trifluoro-1-hydroxy-1-(trifluoromethyl)ethyl)-2-pyrimidinyl)-2-piperazinyl)methyl)-N-(2-methylpropyl)methanesulfonamide] | 1 nM | 13 nM | – | – |
